Experimental data as given in PubChem BioAssay AID330 (DTP/NCI, 2004).
“And” between values parts separate entries of the source, which are not always exact repeats. Equal entries are not always repeated. Inconclusive results and toxic doses are left out.

Tested on: P388 leukemia ip, CD2F1 mice, survival T/C
Assay: NCI In Vivo Anticancer Drug Screen. Data for tumor model P388 Leukemia (intraperitoneal) in CD2F1 (CDF1) mice
Conditions: endpoint: median survival time, higher = longer survival
Outline: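 Mice carrying the transplanted tumor received test compound or vehicle. Survival was recorded in each group, and the value is the treated-group measurement divided by that of the vehicle-treated control group.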

[1] = dose: 60.0 mg/kg/injection, schedule: Q01DX005 (ip), vehicle: saline with Tween-80
[2] = dose: 120.0 mg/kg/injection, schedule: Q01DX005 (ip), vehicle: saline with Tween-80
[3] = dose: 240.0 mg/kg/injection, schedule: Q01DX005 (ip), vehicle: saline with Tween-80
[4] = dose: 50.0 mg/kg/injection, schedule: Q01DX009 (ip), vehicle: saline
[5] = dose: 100.0 mg/kg/injection, schedule: Q01DX009 (ip), vehicle: saline
[6] = dose: 200.0 mg/kg/injection, schedule: Q01DX009 (ip), vehicle: saline
[7] = dose: 25.0 mg/kg/injection, schedule: Q01DX005 (ip), vehicle: Klucel (hydroxypropylcellulose) (HPC)
[8] = dose: 50.0 mg/kg/injection, schedule: Q01DX005 (ip), vehicle: Klucel (hydroxypropylcellulose) (HPC)
[9] = dose: 100.0 mg/kg/injection, schedule: Q01DX005 (ip), vehicle: Klucel (hydroxypropylcellulose) (HPC)
[10] = dose: 50.0 mg/kg/injection, schedule: Q01DX005 (ip), vehicle: saline with Tween-80
[11] = dose: 100.0 mg/kg/injection, schedule: Q01DX005 (ip), vehicle: saline with Tween-80
[12] = dose: 200.0 mg/kg/injection, schedule: Q01DX005 (ip), vehicle: saline with Tween-80
[13] = dose: 50.0 mg/kg/injection, schedule: Q01DX009 (ip), vehicle: saline with Tween-80
[14] = dose: 100.0 mg/kg/injection, schedule: Q01DX009 (ip), vehicle: saline with Tween-80
[15] = dose: 200.0 mg/kg/injection, schedule: Q01DX009 (ip), vehicle: saline with Tween-80

O=P(NC1CCCC1)(N1CC1)N1CC1
T/C (dose: 2.0 mg/kg/injection, schedule: Q04DX003 (ip), vehicle: saline): 110 % of control | T/C (dose: 2.66 mg/kg/injection, schedule: Q01DX009 (ip), vehicle: saline): 154 % of control | T/C (dose: 4.0 mg/kg/injection, schedule: Q01DX009 (ip), vehicle: saline): 209 % of control | T/C (dose: 4.0 mg/kg/injection, schedule: Q04DX003 (ip), vehicle: saline): 120 % of control | T/C (dose: 6.0 mg/kg/injection, schedule: Q01DX009 (ip), vehicle: saline): 118 % of control | T/C (dose: 8.0 mg/kg/injection, schedule: Q04DX003 (ip), vehicle: saline): 200 % of control | T/C (dose: 9.0 mg/kg/injection, schedule: Q01DX009 (ip), vehicle: saline): 100 % of control

NNC(=O)c1ccccc1CO
T/C [1]: 96 % of control | T/C [2]: 102 % of control | T/C [3]: 113 % of control

COc1ccc(C(C)c2cc(C(C)(C)C)c(O)c(C(C)(C)C)c2)cc1 (stereo not given)
T/C (dose: 50.0 mg/kg/injection, schedule: Q01DX005 (ip), vehicle: distilled water + alcohol): 103 % of control | T/C (dose: 100.0 mg/kg/injection, schedule: Q01DX005 (ip), vehicle: distilled water + alcohol): 100 % of control | T/C (dose: 200.0 mg/kg/injection, schedule: Q01DX005 (ip), vehicle: distilled water + alcohol): 105 % of control

COC(=O)Nc1csc2c1NC(=O)CCCC2
T/C (dose: 200.0 mg/kg/injection, schedule: Q04DX003 (ip), vehicle: Klucel (hydroxypropylcellulose) (HPC)): 110 % of control | T/C (dose: 400.0 mg/kg/injection, schedule: Q04DX003 (ip), vehicle: Klucel (hydroxypropylcellulose) (HPC)): 105 % of control

CC[As](CC)SC1OC(C2COC(C)(C)O2)C2OC(C)(C)OC12 (stereo not given)
T/C (dose: 12.5 mg/kg/injection, schedule: Q01DX009 (ip), vehicle: distilled water + Tween-80): 120 % of control | T/C (dose: 25.0 mg/kg/injection, schedule: Q01DX009 (ip), vehicle: distilled water + Tween-80): 123 % of control | T/C (dose: 50.0 mg/kg/injection, schedule: Q01DX009 (ip), vehicle: distilled water + Tween-80): 120 % of control

CCOC(=O)/C=C1/SC(N2CCCCC2)C(=O)N1CC (stereo not given)
T/C (dose: 50.0 mg/kg/injection, schedule: Q01DX009 (ip), vehicle: Klucel (hydroxypropylcellulose) (HPC)): 106 % of control | T/C (dose: 100.0 mg/kg/injection, schedule: Q01DX009 (ip), vehicle: Klucel (hydroxypropylcellulose) (HPC)): 110 % of control | T/C (dose: 200.0 mg/kg/injection, schedule: Q01DX009 (ip), vehicle: Klucel (hydroxypropylcellulose) (HPC)): 110 % of control

CCCCCCC(/C=C/c1ccc(Cl)c(Cl)c1)=N\NC(N)=O
T/C [4]: 104 % of control | T/C [5]: 100 % of control | T/C [6]: 98 % of control

C[As+](C)(C)CC(=O)O
T/C [4]: 99 % of control | T/C [5]: 99 % of control | T/C [6]: 101 % of control

Cc1nc2ccccc2c(=O)n1/N=C1/C(=O)Nc2ccccc21
T/C [7]: 90 % of control | T/C [8]: 90 % of control | T/C [9]: 88 % of control | T/C (dose: 200.0 mg/kg/injection, schedule: Q01DX005 (ip), vehicle: Klucel (hydroxypropylcellulose) (HPC)): 103 % of control

c1ccc2c(c1)C1OC2c2c1ccc1ccccc21 (stereo not given)
T/C [10]: 97 % of control | T/C [11]: 90 % of control | T/C [12]: 88 % of control

CC1=C(C)C2(C)S(=O)Nc3ccccc3C12C (stereo not given)
T/C (dose: 60.0 mg/kg/injection, schedule: Q01DX005 (ip), vehicle: Klucel (hydroxypropylcellulose) (HPC)): 99 % of control | T/C (dose: 120.0 mg/kg/injection, schedule: Q01DX005 (ip), vehicle: Klucel (hydroxypropylcellulose) (HPC)): 99 % of control | T/C (dose: 240.0 mg/kg/injection, schedule: Q01DX005 (ip), vehicle: Klucel (hydroxypropylcellulose) (HPC)): 87 % of control

COC(=S)c1ccc(C(=S)OC)cc1
T/C [13]: 99 % of control | T/C [14]: 105 % of control | T/C [15]: 103 % of control

COC(=O)C1(CC(=O)c2ccc(Cl)c(Cl)c2)NC(=S)NC(=O)C1C#N (stereo not given)
T/C [1]: 106 % of control | T/C [2]: 97 % of control | T/C [3]: 96 % of control

CCCCN1C(=O)/C(=C/c2ccc(OC)c(OC)c2OC)SC1=S
T/C [13]: 93 % of control | T/C [14]: 92 % of control | T/C [15]: 94 % of control

Brc1cnc2nc(Cc3cccc4ccccc34)[nH]c2c1
T/C (dose: 100.0 mg/kg/injection, schedule: Q01DX001 (ip), vehicle: saline with Tween-80): 109 % of control | T/C (dose: 200.0 mg/kg/injection, schedule: Q01DX001 (ip), vehicle: saline with Tween-80): 103 % of control | T/C (dose: 400.0 mg/kg/injection, schedule: Q01DX001 (ip), vehicle: saline with Tween-80): 97 % of control

CN(/N=C/c1ccccc1O)C(=O)Nc1cc(C(F)(F)F)ccc1Cl
T/C (dose: 25.0 mg/kg/injection, schedule: Q01DX005 (ip), vehicle: saline with Tween-80): 100 % of control | T/C [10]: 100 % of control and 102 % of control | T/C [11]: 94 % of control and 96 % of control | T/C [12]: 91 % of control and 94 % of control

COc1cc2c(cc1OC(C)=O)C(=O)C(Br)CCC2 (stereo not given)
T/C [14]: 89 % of control | T/C [15]: 86 % of control

CCC[CH2][Sn][Cl]
T/C [13]: 104 % of control | T/C [14]: 114 % of control | T/C [15]: 117 % of control

CCCCOC1OCN(CCC)CC1(C)C (stereo not given)
T/C [13]: 111 % of control and 113 % of control | T/C [14]: 122 % of control

Cc1ccc(/C2=C(\c3ccc(C)cc3)N(c3ccc(C)cc3)CCCCN2c2ccc(C)cc2)cc1
T/C (dose: 100.0 mg/kg/injection, schedule: Q01DX001 (ip), vehicle: Klucel (hydroxypropylcellulose) (HPC)): 92 % of control | T/C (dose: 200.0 mg/kg/injection, schedule: Q01DX001 (ip), vehicle: Klucel (hydroxypropylcellulose) (HPC)): 87 % of control | T/C (dose: 400.0 mg/kg/injection, schedule: Q01DX001 (ip), vehicle: Klucel (hydroxypropylcellulose) (HPC)): 92 % of control

O=C(O)c1c[nH]c2cc(F)ccc2c1=O
T/C [4]: 103 % of control | T/C [5]: 95 % of control | T/C [6]: 96 % of control

C(/C=C/c1cc2cc(C3=NCCN3)ccc2o1)=C\c1ccc(C2=NCCN2)cc1
T/C (dose: 100.0 mg/kg/injection, schedule: Q04DX003 (ip), vehicle: saline): 114 % of control | T/C (dose: 200.0 mg/kg/injection, schedule: Q04DX003 (ip), vehicle: saline): 119 % of control | T/C (dose: 400.0 mg/kg/injection, schedule: Q04DX003 (ip), vehicle: saline): 118 % of control

COc1cc(C2c3cc4c(cc3C(=O)C(C)C2C)OCO4)ccc1O (stereo not given)
T/C [7]: 98 % of control | T/C [8]: 98 % of control | T/C [9]: 102 % of control | T/C (dose: 150.0 mg/kg/injection, schedule: Q01DX005 (ip), vehicle: Klucel (hydroxypropylcellulose) (HPC)): 86 % of control

c1ccc2c(c1)ccc1c2c[n+](CCCCCCCC[n+]2cc3c4ccccc4ccc3c3ccccc32)c2ccccc12
T/C (dose: 0.78 mg/kg/injection, schedule: Q01DX009 (ip), vehicle: distilled water + Tween-80): 172 % of control | T/C (dose: 1.56 mg/kg/injection, schedule: Q01DX009 (ip), vehicle: distilled water + Tween-80): 163 % of control | T/C (dose: 3.13 mg/kg/injection, schedule: Q01DX009 (ip), vehicle: distilled water + Tween-80): 204 % of control | T/C (dose: 6.25 mg/kg/injection, schedule: Q01DX009 (ip), vehicle: distilled water + Tween-80): 209 % of control

COCC(Cl)/C(N)=N\S(=O)(=O)c1c(C)cc(Cl)cc1Cl (stereo not given)
T/C [1]: 101 % of control | T/C [2]: 100 % of control | T/C [3]: 96 % of control

CCCn1c(C)nc2c(N)cc(Cl)cc21
T/C (dose: 12.5 mg/kg/injection, schedule: Q01DX005 (ip), vehicle: Klucel (hydroxypropylcellulose) (HPC)): 99 % of control | T/C [7]: 95 % of control | T/C [8]: 103 % of control | T/C [9]: 105 % of control

CN(C)C1C(=O)C(C(=O)NCNC2C(=O)N3C2SC(C)(C)C3C(=O)O)=C(O)C2(O)C(=O)C3=C(O)c4c(O)cccc4C(C)(O)C3CC12 (stereo not given)
T/C [10]: 100 % of control | T/C [11]: 104 % of control | T/C [12]: 90 % of control

CCOC(=O)C1=C(O)c2ccccc2S(=O)(=O)N1C (tested in a mixture with another compound)
T/C [1]: 98 % of control | T/C [2]: 107 % of control | T/C [3]: 97 % of control
